Among the data in patent publication US20070161623A1, “Urea derivatives” (MERCK PATENT GMBH, priority 2004, published 2007) are IC50 values, retold here.

This experiment addresses FXa (Homo sapiens, UniProt P00742). Kind of experiment: Factor Xa inhibition (FXa-IC50). The class given is biochemical. The text has this:
The inhibition of factor Xa by the compounds according to the invention and the measurement of the anticoagulant and antithrombotic activity can be determined by conventional in-vitro or in-vivo methods. A suitable method is described, for example, by J. Hauptmann et al. in Thrombosis and Haemostasis 1990, 63, 220-223.
The inhibition of factor Xa can be measured, for example by the method of T. Hara et al. in Thromb. Haemostas. 1994, 71, 314-319.

FXa, sequence (P00742 235-488 limits assumed): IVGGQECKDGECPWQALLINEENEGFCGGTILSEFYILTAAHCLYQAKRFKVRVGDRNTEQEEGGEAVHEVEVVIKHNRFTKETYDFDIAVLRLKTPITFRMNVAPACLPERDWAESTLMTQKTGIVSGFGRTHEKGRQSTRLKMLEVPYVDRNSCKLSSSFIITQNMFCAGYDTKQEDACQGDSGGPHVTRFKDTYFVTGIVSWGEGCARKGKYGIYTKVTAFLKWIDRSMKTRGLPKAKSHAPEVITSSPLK
FXa, sequence (P00742 41-179 limits assumed): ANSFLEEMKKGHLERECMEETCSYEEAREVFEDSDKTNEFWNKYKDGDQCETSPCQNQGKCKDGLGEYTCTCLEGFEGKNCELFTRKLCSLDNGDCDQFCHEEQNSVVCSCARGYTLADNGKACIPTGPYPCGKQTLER

The term IC50 denotes the concentration needed to halve the response being measured. `Cc1cc(NC(=O)Nc2cc(O)ccc2NC(=O)Nc2ccc(Cl)cc2)ccc1N1CCOCC1=O` [Compound A1, 1-(4-chlorophenyl)-3-(4-hydroxy-2-{3-[3-methyl-4-(3-oxo-morpholin-4-yl)phenyl]ureido}phenyl)urea]: inhibition was half-maximal at 12 nM (IC50).
Under `Cc1cc(NC(=O)Nc2ccncc2NC(=O)Nc2ccc(Cl)cc2)ccc1N1CCOCC1=O` [Compound B0, 1-(4-Chlorophenyl)-3-(4-{3-[3-methyl-4-(3-oxomorpholin-4-yl)-phenyl]ureido}pyridin-3-yl)urea] stands 420 nM.
